Results published in patent publication US20150374767A1, “Treatment of Cancer” (priority 2013, published 2015).
“Also recorded” adds a separate entry of the source. Counter-ions that a name gives are not always drawn.

Key:
PDGFRβ = PDGFRβ (Homo sapiens, UniProt P09619); conditions: cited from earlier work
VEGFR2 = conditions: cited from earlier work; for IC50: read-out: IC50 for VEGFR2 (KDR)
HepG2-luc = type: cell-based, human
One58 = type: cell-based, human
HuH7 = type: cell-based, human
SKOV3 = type: cell-based, human
Virttu cell panel = assay: combination with HSV1716, DCP cell death, Chou-Talalay analysis, cell panel; type: cell-based, human
SPC111 = assay: combination with HSV1716, Chou-Talalay, SPC111; type: cell-based, human; conditions: SPC111, HSV1716 moi 0.5 and 0.05, 72 hours
Ovcar3 = type: cell-based, human
CP70 = type: cell-based, human
HSV1716gfp = assay: GFP expression during infection with HSV1716gfp (drug toxicity to virus); type: cell-based, herpes simplex virus
U87 = type: cell-based, human
Virttu cell line panel = assay: cells; type: cell-based; conditions: Homo sapiens; most/all cell lines of panel, 72 hrs; read-out: IC50 (DCP leakage), range over cell lines
UVW = type: cell-based, human
B-Raf = conditions: read-out: IC50 for B-Raf; cited from earlier work
c-Met = c-Met (Homo sapiens, UniProt P08581); conditions: cited from earlier work
H3255 = conditions: H3255, Gefitinib sensitive L858R; cited from earlier work
NCI-H1975 = conditions: NCI-H1975, L858R/T790M EGFR; read-out: IC50, inhibiting survival of lung cancer cell line; cited from earlier work
H1666 = conditions: H1666, wild-type EGFR; read-out: IC50, inhibiting survival of lung cancer cell line; cited from earlier work
Hep3B = type: cell-based, human
PARP = PARP cleavage by Western blotting; type: cell-based, human; conditions: in combination with HSV1716
[1] = system: human gastric carcinoma xenograft; assay: patient-derived human gastric carcinoma xenograft model; set-up: species or system mice; conditions: mouse, in vivo
Protocol: HSV1716 (Seprehvir) was used in a personalised oncology study. Patient-derived tumour samples were obtained from a gastric carcinoma. There have been no previous in vitro or in vivo pre-clinical studies with Seprehvir in human gastric carcinoma cells/xenografts. Seprehvir was stored at −70° C., and multiple vials were provided to avoid repeated freeze/thawing.
Two groups of 3 mice with gastric carcinoma implants were treated with 2×10^6 pfu Seprehvir by either intratumoural (IT) or intravenous (IV) routes of administration. Control mice (n=3) received no treatment and in these mice the implants grew rapidly and all were sacrificed within 18 days (FIG. 61). For IV injection, Seprehvir was administered on days 0, 3, 10 and 18, at which point the tumors were too large and the mice were sacrificed.
For IT injection of Seprehvir, 2×10^6 pfu was administered on days 0, 3, 10, 18, 21 and 25.
. Control mice (n=3) received no treatment and in these mice the implants grew rapidly and all were sacrificed within 18 days (FIG. 62). […]. A follow-on study with HSV1716 administering more frequent by IV dosing at the higher concentration of 10^7 pfu was performed using the same human gastric carcinoma xenograft model. […].
Groups of 3 mice received IV injection of HSV1716 at 1×10^7 pfu on days 1, 3, 5, 8, 10, 12, 15, 17 and 19. […]

PDGFRβ, sequence (P09619 33-1106): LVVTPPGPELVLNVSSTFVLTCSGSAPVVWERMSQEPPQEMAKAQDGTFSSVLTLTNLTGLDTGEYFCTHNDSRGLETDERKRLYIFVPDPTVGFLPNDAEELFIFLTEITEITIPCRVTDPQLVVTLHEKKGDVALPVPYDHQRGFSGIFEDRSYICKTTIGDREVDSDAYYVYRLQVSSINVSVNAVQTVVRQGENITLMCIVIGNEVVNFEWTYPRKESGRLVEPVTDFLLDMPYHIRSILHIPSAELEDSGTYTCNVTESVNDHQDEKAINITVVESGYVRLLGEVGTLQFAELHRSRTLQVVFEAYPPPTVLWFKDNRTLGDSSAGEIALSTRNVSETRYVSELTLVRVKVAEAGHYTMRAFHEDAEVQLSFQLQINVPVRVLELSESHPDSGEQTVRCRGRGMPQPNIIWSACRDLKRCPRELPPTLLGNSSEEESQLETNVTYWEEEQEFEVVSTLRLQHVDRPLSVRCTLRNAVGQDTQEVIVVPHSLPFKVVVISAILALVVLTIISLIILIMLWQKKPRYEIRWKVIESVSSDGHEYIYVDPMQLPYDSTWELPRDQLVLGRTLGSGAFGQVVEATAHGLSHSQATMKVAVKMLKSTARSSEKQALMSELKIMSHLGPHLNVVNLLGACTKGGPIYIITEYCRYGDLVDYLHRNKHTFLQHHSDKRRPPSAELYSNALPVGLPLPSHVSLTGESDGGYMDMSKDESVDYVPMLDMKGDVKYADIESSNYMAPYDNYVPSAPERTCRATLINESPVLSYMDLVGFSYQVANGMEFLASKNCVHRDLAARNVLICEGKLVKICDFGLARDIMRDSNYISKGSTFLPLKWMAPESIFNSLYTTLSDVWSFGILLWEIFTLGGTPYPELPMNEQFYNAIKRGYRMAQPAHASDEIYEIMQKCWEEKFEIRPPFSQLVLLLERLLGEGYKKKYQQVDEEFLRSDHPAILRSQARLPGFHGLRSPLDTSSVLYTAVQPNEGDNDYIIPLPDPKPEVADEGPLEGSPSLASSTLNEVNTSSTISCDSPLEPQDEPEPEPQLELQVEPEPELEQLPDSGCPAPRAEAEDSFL
c-Met, sequence (P08581 25-1390): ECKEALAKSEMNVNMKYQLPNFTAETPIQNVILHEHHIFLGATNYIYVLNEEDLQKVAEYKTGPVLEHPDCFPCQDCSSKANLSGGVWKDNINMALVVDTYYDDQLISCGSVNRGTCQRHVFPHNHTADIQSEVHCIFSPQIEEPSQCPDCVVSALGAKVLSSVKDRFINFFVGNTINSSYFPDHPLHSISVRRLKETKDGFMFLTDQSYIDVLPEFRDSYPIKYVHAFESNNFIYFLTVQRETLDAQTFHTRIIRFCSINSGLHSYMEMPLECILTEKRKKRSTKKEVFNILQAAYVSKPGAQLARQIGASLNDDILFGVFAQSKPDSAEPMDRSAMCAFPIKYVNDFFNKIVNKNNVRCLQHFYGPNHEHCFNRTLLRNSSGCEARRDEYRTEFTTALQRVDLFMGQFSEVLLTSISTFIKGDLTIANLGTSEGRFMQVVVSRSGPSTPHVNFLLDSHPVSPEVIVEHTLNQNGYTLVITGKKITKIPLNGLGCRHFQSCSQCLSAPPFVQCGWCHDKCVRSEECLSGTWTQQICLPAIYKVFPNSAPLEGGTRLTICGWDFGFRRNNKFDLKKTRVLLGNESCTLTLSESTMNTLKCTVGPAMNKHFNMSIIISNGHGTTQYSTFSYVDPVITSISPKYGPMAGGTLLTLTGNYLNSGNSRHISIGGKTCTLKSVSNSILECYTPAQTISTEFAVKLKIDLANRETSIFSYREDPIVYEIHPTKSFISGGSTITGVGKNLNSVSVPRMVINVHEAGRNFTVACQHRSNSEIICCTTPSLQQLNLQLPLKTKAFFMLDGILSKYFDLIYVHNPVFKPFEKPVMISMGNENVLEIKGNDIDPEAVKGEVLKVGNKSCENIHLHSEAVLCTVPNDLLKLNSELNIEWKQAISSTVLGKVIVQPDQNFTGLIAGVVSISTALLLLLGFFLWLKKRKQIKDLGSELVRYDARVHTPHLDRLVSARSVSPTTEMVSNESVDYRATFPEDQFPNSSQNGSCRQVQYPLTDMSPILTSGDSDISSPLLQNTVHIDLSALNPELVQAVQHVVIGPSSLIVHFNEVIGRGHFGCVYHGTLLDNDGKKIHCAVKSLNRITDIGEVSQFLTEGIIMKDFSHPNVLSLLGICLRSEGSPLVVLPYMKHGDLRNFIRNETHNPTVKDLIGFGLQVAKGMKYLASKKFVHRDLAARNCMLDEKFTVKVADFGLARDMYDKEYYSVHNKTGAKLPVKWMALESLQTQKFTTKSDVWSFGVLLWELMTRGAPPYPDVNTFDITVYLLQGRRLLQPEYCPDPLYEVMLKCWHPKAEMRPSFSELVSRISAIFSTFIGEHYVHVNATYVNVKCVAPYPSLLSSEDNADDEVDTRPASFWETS

CCCNC(=O)Nc1ccc(Oc2ncnc3cc(OC)c(OC)cc23)cc1Cl [KRN 633, N-[2-Chloro-4-[(6,7-dimethoxy-4-quinazolinyl)oxy]phenyl]-N′-propylurea]
IC50 (PDGFRβ): 9850 nM | IC50 (VEGFR2): 160 nM

CCN1CCN(Cc2ccc(-c3cc4c(N[C@H](C)c5ccccc5)ncnc4[nH]3)cc2)CC1 [AEE788, 6-[4-[(4-Ethylpiperazin-1-yl)methyl]phenyl]-N-[(1R)-1-phenylethyl]-7H-pyrrolo[2,3-d]pyrimidin-4-amine]
IC50 (VEGFR2): 77 nM

C[C@@H](Oc1cc(-c2cnn(C3CCNCC3)c2)cnc1N)c1c(Cl)ccc(F)c1Cl [Crizotinib, 3-[(1R)-1-(2,6-dichloro-3-fluorophenyl)ethoxy]-5-(1-piperidin-4-ylpyrazol-4-yl)pyridin-2-amine]
synergy/antagonism with HSV1716 on cell death (Chou-Talalay) (HepG2-luc): synergistic | synergy/antagonism with HSV1716 on cell death (Chou-Talalay) (One58): antagonistic | synergy/antagonism with HSV1716 on cell death (Chou-Talalay) (HuH7): some limited synergy | synergy/antagonism with HSV1716 on cell death (Chou-Talalay) (SKOV3): some limited synergy | number of cell lines in which moi 0.05 generated synergy (Virttu cell panel): 8 of the 9 | number of cell lines in which moi 0.5 generated synergy (Virttu cell panel): 3 of the 9 | synergy/antagonism with HSV1716 on cell death (Chou-Talalay) (SPC111): some limited synergy | synergy/antagonism with HSV1716 on cell death (Chou-Talalay) (Ovcar3): some limited synergy | synergy/antagonism with HSV1716 on cell death (Chou-Talalay) (CP70): strongly synergistic | effect on GFP expression during HSV1716gfp infection (HSV1716gfp; CP70, moi 0.5 and 0.05, 72 hrs): increased GFP expression | effect on GFP expression during HSV1716gfp infection (HSV1716gfp; Hep3B, moi 0.5 and 0.05, 72 hrs): decreased GFP expression | effect on GFP expression during HSV1716gfp infection (HSV1716gfp; HepG2-luc, both moi (0.5 and 0.05), 72 hrs): little effect on GFP expression | effect on GFP expression during HSV1716gfp infection (HSV1716gfp; HuH7, moi 0.5 and 0.05, 72 hrs): decreased GFP expression | effect on GFP expression during HSV1716gfp infection (HSV1716gfp; One58, moi 0.5 and 0.05, 72 hrs): increased GFP expression | effect on GFP expression during HSV1716gfp infection (HSV1716gfp; Ovcar3, moi 0.5 and 0.05, all drug doses, 72 hrs): little effect on GFP expression | effect on GFP expression during HSV1716gfp infection (HSV1716gfp; SPC-111, moi 0.5 and 0.05, all drug doses, 72 hrs): little effect on GFP expression | effect on GFP expression during HSV1716gfp infection (HSV1716gfp; Skov3, moi 0.5 and 0.05, all drug doses, 72 hrs): little effect on GFP expression | effect on GFP expression during HSV1716gfp infection (HSV1716gfp; U87, moi 0.5 and 0.05, 72 hrs): increased GFP expression | effect on GFP expression during HSV1716gfp infection (HSV1716gfp; UVW, moi 0.5 and 0.05, 72 hrs): decreased GFP expression | synergy/antagonism with HSV1716 on cell death (Chou-Talalay) (U87): strongly synergistic | IC50 (Virttu cell line panel): 2000 to 30000 nM | synergy/antagonism with HSV1716 on cell death (Chou-Talalay) (UVW): strongly synergistic

Cc1cc(F)c(Nc2ncnc3cc(OCc4ccccc4)ccc23)cc1O [ZM 323881 HCl, 5-((7-Benzyloxyquinazolin-4-yl)amino)-4-fluoro-2-methylphenol hydrochloride]
IC50 (VEGFR2): < 2 nM

Cc1[nH]c(/C=C2\C(=O)Nc3ccccc32)c(C)c1CCC(=O)O [TSU-68, (Z)-3-(2,4-dimethyl-5-((2-oxoindolin-3-ylidene)methyl)-1H-pyrrol-3-yl)propanoic acid]
Ki (PDGFRβ; read-out: Ki for PDGFRβ): 8 nM | Ki (VEGFR2; read-out: Ki for VEGFR2 (Flk-1/KDR)): 2100 nM

Nc1nccc(Oc2ccc(NC(=O)c3c[nH]cc(-c4ccc(F)cc4)c3=O)cc2F)c1Cl [BMS 794833, N-(4-((2-amino-3-chloropyridin-4-yl)oxy)-3-fluorophenyl)-5-(4-fluorophenyl)-4-oxo-1,4-dihydropyridine-3-carboxamide]
IC50 (VEGFR2): 15 nM

N-(2-fluoro-4-((2-(4-(4-methylpiperazin-1-yl)piperidine-1-carboxamido)pyridin-4-yl)oxy)phenyl)-N-(4-fluorophenyl)cyclopropane-1,1-dicarboxamide [Golvatinib]
IC50 (VEGFR2): 16 nM | IC50 (c-Met): 14 nM

COc1cc2c(Oc3ccc4[nH]c(C)cc4c3F)ncnc2cc1OCCCN1CCCC1 [Cediranib, 4-[(4-fluoro-2-methyl-1H-indol-5-yl)oxy]-6-methoxy-7-[3-(pyrrolidin-1-yl)propoxy]quinazoline]
IC50 (VEGFR2): 0.5 nM

CN(C)CC=CC(=O)Nc1cc2c(Nc3ccc(F)c(Cl)c3)ncnc2cc1O[C@H]1CCOC1 [Afantinib, N-[4-[(3-Chloro-4-fluorophenyl)amino]-7-[[(3S)-tetrahydro-3-furanyl]oxy]-6-quinazolinyl]-4(dimethylamino)-2-butenamide]
IC50, inhibiting survival of lung cancer cell line (H3255): subnanomolar | IC50 (NCI-H1975): < 100 nM | IC50 (H1666): < 100 nM

CN(C[C@@H]1COCCO1)S(=O)(=O)Nc1ccc2ccc3ncc(-c4cnn(C)c4)cc3c(=O)c2c1 [MK-2461, N-((2R)-1,4-Dioxan-2-ylmethyl)-N-methyl-N′-[3-(1-methyl-1H-pyrazol-4-yl)-5-oxo-5H-benzo[4,5]cyclohepta[1,2-b]pyridin-7-yl]sulfamide]
IC50 (PDGFRβ): 22 nM | IC50 (c-Met): 2.5 nM

COc1cc2ncnc(Nc3ccc(F)c(Cl)c3)c2cc1OCCCN1CCOCC1 [Gefitinib, N-(3-chloro-4-fluoro-phenyl)-7-methoxy-6-(3-morpholin-4-ylpropoxy)quinazolin-4-amine]
overall synergy/antagonism with HSV1716 on cell death (Virttu cell panel): antagonistic with HSV1716 in all cell lines; also recorded: mostly antagonistic | synergy/antagonism with HSV1716 on cell death (Chou-Talalay) (Hep3B): Synergy

CCN(CC)CCNC(=O)c1c(C)[nH]c(/C=C2\C(=O)Nc3ccc(F)cc32)c1C [Sunitinib, N-(2-diethylaminoethyl)-5-[(Z)-(5-fluoro-2-oxo-1H-indol-3-ylidene)methyl]-2,4-dimethyl-1H-pyrrole-3-carboxamide]
synergy/antagonism with HSV1716 on cell death (Chou-Talalay) (HepG2-luc): strongly synergistic | synergy/antagonism with HSV1716 on cell death (Chou-Talalay) (One58): strongly synergistic | synergy/antagonism with HSV1716 on cell death (Chou-Talalay) (SKOV3): some evidence of synergy | number of cell lines in which moi 0.05 generated synergy (Virttu cell panel): 9 of the 10 | number of cell lines in which moi 0.5 generated synergy (Virttu cell panel): 7 of the 10 | number of cell lines tested with clear synergy signals / synergism with HSV1716 (Virttu cell panel): 9 of the 10 | synergy/antagonism with HSV1716 on cell death (Chou-Talalay) (SPC111): strongly synergistic | synergy/antagonism with HSV1716 on cell death (Chou-Talalay) (CP70): strongly synergistic | effect on GFP expression during HSV1716gfp infection (HSV1716gfp; CP70, moi 0.05, 72 hrs): more pronounced | effect on GFP expression during HSV1716gfp infection (HSV1716gfp; SPC111, moi 0.05, 72 hrs): more pronounced | effect on GFP expression during HSV1716gfp infection (HSV1716gfp; all 9 cell lines tested, moi 0.5 and moi 0.05, 72 hours): increased GFP expression | synergy/antagonism with HSV1716 on cell death (Chou-Talalay) (U87): strongly synergistic | PARP cleavage (executioner phase of apoptosis) (PARP; Hep3B cells): PARP cleavage demonstrated by Western blotting | PARP cleavage (executioner phase of apoptosis) (PARP; Ovcar3 cells): PARP cleavage demonstrated by Western blotting | IC50 (Virttu cell line panel): 500 to 15000 nM | synergy/antagonism with HSV1716 on cell death (Chou-Talalay) (UVW): antagonistic

CNC(=O)c1cc(Oc2ccc(NC(=O)Nc3ccc(Cl)c(C(F)(F)F)c3)c(F)c2)ccn1.O [Regorafenib, 4-[4-({[4-Chloro-3-(trifluoromethyl)phenyl]carbamoyl}amino)-3-fluorophenoxy]-N-methylpyridine-2-carboxamide hydrate]
tumour growth inhibition [1]: highly effective at tumour growth inhibition

N#CC1(c2ccc(NC(=O)c3cccnc3NCc3ccncc3)cc2)CCCC1 [Apatinib, N-[4-(1-cyanocyclopentyl)phenyl-2-(4-picolyl)amino-3-Nicotinamide methanesulphonate]
IC50 (VEGFR2): 2.34 nM
